In PMC7744269 (Bioorganic & medicinal chemistry, 2010):

Columns and labels:
[1] = test system: viruses (HIV, Vaccinia virus, Cowpox virus, etc.); conditions: previously reported; cited from earlier work
[2] = biological target: T1, Ureaplasma parvum thymidine kinase (UpTK) (Ureaplasma parvum serovar 3, UniProt Q9PPP5); experiment: Phosphate transfer assay with [γ-32P]-ATP; format: biochemical; conditions: for Vmax values of UpTK, times lower than with AZT: compared with AZT
T1 sequence (Q9PPP5 1-223): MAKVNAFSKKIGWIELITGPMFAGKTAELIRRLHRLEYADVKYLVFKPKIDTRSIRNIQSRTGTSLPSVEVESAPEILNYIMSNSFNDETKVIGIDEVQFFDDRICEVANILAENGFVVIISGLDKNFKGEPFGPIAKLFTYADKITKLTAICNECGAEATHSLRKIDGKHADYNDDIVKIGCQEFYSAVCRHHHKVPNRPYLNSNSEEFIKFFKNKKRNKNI

[3] = biological target: T2, human thymidine kinase 1 (hTK1) (Homo sapiens, UniProt P04183); experiment: IC50 determination, DE-81 filter paper [3H]-dThd assay, hTK1; format: biochemical
T2 sequence (P04183 1-234): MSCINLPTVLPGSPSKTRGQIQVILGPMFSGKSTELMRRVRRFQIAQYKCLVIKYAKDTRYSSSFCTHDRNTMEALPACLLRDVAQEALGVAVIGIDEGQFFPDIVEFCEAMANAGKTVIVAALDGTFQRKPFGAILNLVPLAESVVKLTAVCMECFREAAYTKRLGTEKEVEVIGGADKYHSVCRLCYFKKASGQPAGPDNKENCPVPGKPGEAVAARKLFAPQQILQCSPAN

Q: With `Cc1cn([C@H]2C[C@H](n3cc(CO)nn3)[C@@H](CO)O2)c(=O)[nH]c1=O` [Compound 1, 3′-(4-Hydroxymethyl-1,2,3-triazol-1-yl)-3′-deoxythymidine] as the compound, how does the Antiviral activity [1] read?
A: devoid of significant antiviral activity

Q: With `CCCc1cn([C@H]2C[C@H](n3cc(C)c(=O)[nH]c3=O)O[C@@H]2CO)nn1` [Compound 6, 3′-(4-Propyl-1,2,3-triazol-1-yl)-3′-deoxythymidine] as the compound, how does the “Relative efficiency with UpTK” value ([2]; compared to dThd (set to 100%)) read?
A: 1.6%

Q: Which Antiviral activity [1] does the source give for `Cc1cn([C@H]2C[C@H](n3cc(-c4ccccc4)nn3)[C@@H](CO)O2)c(=O)[nH]c1=O` [Compound 9, 3′-(4-Phenyl-1,2,3-triazol-1-yl)-3′-deoxythymidine] here?
A: devoid of significant antiviral activity

Q: What about the “Vmax values of UpTK, times lower than with AZT” value [2] of the same compound?
A: 3–4

Q: With `Cc1cn([C@H]2C[C@H](n3cc(-c4ccccn4)nn3)[C@@H](CO)O2)c(=O)[nH]c1=O` [Compound 12, 3′-(4-(2-Pyridine)-1,2,3-triazole-1-yl)-2′-deoxythymidine] as the compound, how does the IC50 [3] read?
A: 40 to 50 µM

Q: What about the Antiviral activity [1] of the same compound?
A: devoid of significant antiviral activity

Q: And the “Vmax values of UpTK, times lower than with AZT” value [2]?
A: 3–4

Q: Which Antiviral activity [1] does the source give for `Cc1cn([C@H]2C[C@H](n3cc(-c4ccc(F)cc4)nn3)[C@@H](CO)O2)c(=O)[nH]c1=O` [Compound 13, 3′-(4-(4-Fluorophenyl)-1,2,3-triazole-1-yl)-2′-deoxythymidine] here?
A: devoid of significant antiviral activity

Q: And the “Phosphorylation with UpTK compared to hTK1 (relative activity)” value ([2]; UpTK vs hTK1)?
A: five times more potent with UpTK than hTK1

Q: And the “Vmax values of UpTK, times lower than with AZT” value [2]?
A: 3–4
